What was measured:
Type in all cases: cell-based
E. coli DH5α = test: Antibacterial activity: MIC and growth curve against E. coli DH5α in 96-well plate; conditions: minimal inhibitory concentration against E. coli DH5α; 96-well plate, 5×10^5 CFU/mL, 37° C., judged after 8 h
How it was run: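 Log-phase bacteria (OD600 ~0.5) resuspended in LB at 5×10^5 CFU/mL, exposed to recombinant protein at 50, 25, 12.5 μg/mL final in triplicate, 37 °C shaking at 175 rpm. OD600 read every 30 min; MIC is lowest concentration showing no growth.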

E. coli BL21 = test: MIC against Gram-negative bacteria: E. coli BL21; conditions: 10 h cultivation at 37° C.; for MIC (μg/mL) E. coli BL21 / MIC: E. coli BL21
How it was run: (§1)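 The recombinant human-originated EGF domain proteins were serially diluted two-fold against bacteria at 5×10^5 CFU/mL in LB medium. After shaken incubation at 37° C, the lowest concentration with no bacterial growth was recorded as the MIC.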

Pseudomonas aeruginosa = test: MIC against Gram-negative bacteria: Pseudomonas aeruginosa; conditions: 10 h cultivation at 37° C.; for MIC (μg/mL) P. aeruginosa / MIC: P. aeruginosa
How it was run: as §1

Klebsiella pneumonia = test: MIC against Gram-negative bacteria: Klebsiella pneumonia; conditions: 10 h cultivation at 37° C.; for MIC (μg/mL) K. pneumonia / MIC: K. pneumonia
How it was run: as §1

Enterobacter cloacae = test: MIC against Gram-negative bacteria: Enterobacter cloacae; conditions: 10 h cultivation at 37° C.; for MIC (μg/mL) E. cloacae / MIC: E. cloacae
How it was run: as §1

Aeromonas hydrophila = test: MIC against Gram-negative bacteria: Aeromonas hydrophila; conditions: 10 h cultivation at 37° C.; for MIC (μg/mL) A. hydrophila / MIC: A. hydrophila
How it was run: as §1

Citrobacter diversus = test: MIC against Gram-negative bacteria: Citrobacter diversus; conditions: 10 h cultivation at 37° C.; for MIC (μg/mL) C. diversus / MIC: C. diversus
How it was run: as §1

Moraxella catarrhalis = test: MIC against Gram-negative bacteria: Moraxella catarrhalis; conditions: 10 h cultivation at 37° C.; for MIC (μg/mL) M. catarrhalis / MIC: M. catarrhalis
How it was run: as §1

Proteus mirabilis = test: MIC against Gram-negative bacteria: Proteus mirabilis; conditions: 10 h cultivation at 37° C.; for MIC (μg/mL) P. mirabilis / MIC: P. mirabilis
How it was run: as §1

Proteus vulgaris = test: MIC against Gram-negative bacteria: Proteus vulgaris; conditions: 10 h cultivation at 37° C.; for MIC (μg/mL) P. vulgaris / MIC: P. vulgaris
How it was run: as §1

Serratia marcescens = test: MIC against Gram-negative bacteria: Serratia marcescens; conditions: 10 h cultivation at 37° C.; for MIC (μg/mL) S. marcescens / MIC: S. marcescens
How it was run: as §1

[1] = 5×10^5 CFU/mL, two-fold serial dilution

| Substance | MIC (E. coli DH5α) | MIC (μg/mL) E. coli BL21 (E. coli BL21; 5×10^5 CFU/mL) | MIC (μg/mL) P. aeruginosa (Pseudomonas aeruginosa; 5×10^5 CFU/mL) | MIC (μg/mL) K. pneumonia (Klebsiella pneumonia; 5×10^5 CFU/mL) | MIC (μg/mL) E. cloacae (Enterobacter cloacae; 5×10^5 CFU/mL) | MIC (μg/mL) A. hydrophila (Aeromonas hydrophila; 5×10^5 CFU/mL) | MIC (μg/mL) C. diversus (Citrobacter diversus; 5×10^5 CFU/mL) | MIC (μg/mL) M. catarrhalis (Moraxella catarrhalis; 5×10^5 CFU/mL) | MIC (μg/mL) P. mirabilis (Proteus mirabilis; 5×10^5 CFU/mL) | MIC (μg/mL) P. vulgaris (Proteus vulgaris; 5×10^5 CFU/mL) | MIC (μg/mL) S. marcescens (Serratia marcescens; 5×10^5 CFU/mL) | MIC (E. coli BL21) | MIC (Pseudomonas aeruginosa) | MIC (Klebsiella pneumonia) | MIC (Enterobacter cloacae) | MIC (Aeromonas hydrophila) | MIC (Citrobacter diversus) | MIC (Moraxella catarrhalis) | MIC (Proteus mirabilis) | MIC (Proteus vulgaris) | further results |
| --- | --- | --- | --- | --- | --- | --- | --- | --- | --- | --- | --- | --- | --- | --- | --- | --- | --- | --- | --- | --- | --- |
| PRT1083 (GTNVCAVANGGCQQLCLYRGRGQRACACAHGMLAEDGASCR; listed as Homo sapiens) | 50 µg/mL |  |  |  |  |  |  |  |  |  |  |  |  |  |  |  |  |  |  |  | MIC E. coli BL21 (E. coli BL21; [1]): 12.5 µg/mL; MIC P. aeruginosa (Pseudomonas aeruginosa; [1]): 50 µg/mL; MIC K. pneumonia (Klebsiella pneumonia; [1]): 50 µg/mL; MIC E. cloacae (Enterobacter cloacae; [1]): 50 µg/mL; MIC A. hydrophila (Aeromonas hydrophila; [1]): 25 µg/mL; MIC C. diversus (Citrobacter diversus; [1]): 12.5 µg/mL; MIC M. catarrhalis (Moraxella catarrhalis; [1]): 50 µg/mL; MIC P. mirabilis (Proteus mirabilis; [1]): 25 µg/mL; MIC P. vulgaris (Proteus vulgaris; [1]): 50 µg/mL; MIC S. marcescens (Serratia marcescens; [1]): 25 µg/mL |
| PRT224 (DVNECDMGAPCEQRCFNSYGTFLCRCHQGYELHRDGFSCS; listed as Homo sapiens) | 25 µg/mL | 12.5 µg/mL | 25 µg/mL | 12.5 µg/mL | 12.5 µg/mL | 12.5 µg/mL | 12.5 µg/mL | 12.5 µg/mL | 12.5 µg/mL | 12.5 µg/mL | 50 µg/mL |  |  |  |  |  |  |  |  |  |  |
| PRT990 (LDDACVSNPCHEDAICDTNPVNGRAICTCPPGFTGGACD; listed as Homo sapiens) | 12.5 µg/mL |  |  |  |  |  |  |  |  |  |  | 25 µg/mL | 12.5 µg/mL | 12.5 µg/mL | 50 µg/mL | 12.5 µg/mL | 25 µg/mL | 50 µg/mL | 25 µg/mL | 12.5 µg/mL | MIC (Serratia marcescens): 25 µg/mL |
| PRT1019 (NLDDCIAATCAPGSTCIDRVGSFSCLCPPGRTGLLCH; listed as Homo sapiens) | 12.5 µg/mL |  |  |  |  |  |  |  |  |  |  | 50 µg/mL | 12.5 µg/mL | 25 µg/mL | 50 µg/mL | 12.5 µg/mL | 50 µg/mL | 12.5 µg/mL | 50 µg/mL | 12.5 µg/mL | MIC (Serratia marcescens): 25 µg/mL |
| PRT227 (KGNNCRDSTLCPAYATCTNTVDSYYCACKQGFLSSNGQNHFKDPGVRCK; listed as Homo sapiens) | 12.5 µg/mL | 12.5 µg/mL | 12.5 µg/mL | 12.5 µg/mL | 12.5 µg/mL | 12.5 µg/mL | 50 µg/mL | 25 µg/mL | 12.5 µg/mL | 25 µg/mL | 50 µg/mL |  |  |  |  |  |  |  |  |  |  |
| PRT807 (YGDGCQLPCTCQNGADCHSITGGCTCAPGFMGEVCA; listed as Homo sapiens) | 25 µg/mL | 50 µg/mL | 25 µg/mL | 12.5 µg/mL | 50 µg/mL | 12.5 µg/mL | 25 µg/mL | 50 µg/mL | 12.5 µg/mL | 50 µg/mL | 12.5 µg/mL |  |  |  |  |  |  |  |  |  |  |
